Measurements from patent US10251874B2, “Crystalline forms of a JAK inhibitor compound” (THERAVANCE BIOPHARMA R&D IP, LLC, priority 2017, dated 2019).

Key:
[1] = system: IFNγ induced CXCL10 secretion in EpiAirway tissue cultures; experiment: Assay 15: IFNγ induced CXCL10 in human 3D airway cultures; assay type: cell-based; details: 192 h, Day 8, average from 3 or 4 donors, read-out: % inhibition of IFNγ induced CXCL10 secretion (±STDV)
Protocol: EpiAirway tissue cultures were obtained from Mattek (AIR-100). Cultures were derived from asthmatic donors. In a cell culture insert, human derived tracheal/bronchial epithelial cells were grown and differentiated on a porous membrane support, allowing an air-liquid interface with warmed culture medium below the cells and a gaseous test atmosphere above. Tissues were cultured in maintenance media (Mattek, AIR-100-MM) in a 37° C., 5% CO2 humidified incubator. Four donors were tested. On Day 0, tissue cultures were treated with test compounds at 10 μM, 1 μM and/or 0.1 μM. Compounds were diluted in dimethyl sulfoxide (DMSO, Sigma) to a final concentration of 0.1%. DMSO at 0.1% was used as a vehicle control. Test compounds were incubated with cultures for 1 hour at 37° C., 5% CO2, followed by the addition of pre-warmed media containing IFNγ (R&D Systems) or IL-27 (R&D Systems) at a final concentration at 100 ng/ml. Tissue cultures were maintained for 8 days. Media was replaced every 2 days with fresh media containing compounds and IFNγ or IL-27. On Day 8, tissue cultures and supernatants were collected for analysis. […] Data is expressed as % Inhibition +/−standard deviation (±STDV). Percent inhibition was determined by compound inhibitory potency against IFNγ or IL-27 induced CXCL10 or CXCL9 secretion compared to vehicle treated cells. […]

[2] = system: IL-2/anti-CD3 stimulated IFNγ in human PBMCs; experiment: Assay 3: Inhibition of IL-2/anti-CD3 stimulated IFNγ in human PBMCs; assay type: cell-based; details: PBMC, 24 h stimulation, ELISA, read-out: pIC50, inhibition of IL-2/anti-CD3 stimulated IFNγ (converted)
Description: Data are expressed as pIC50 (negative decadic logarithm IC50) values.

[3] = Assay 8: Pharmacokinetics in plasma and lung in mouse; assay type: in vivo, BALB/c mice; details: BALB/c, 10 µg/mouse, oral aspiration, 0.2 mg/mL, 50 uL, read-out: exposure in lung relative to exposure in plasma (lung AUC to plasma AUC ratio)
Protocol: Plasma and lung levels of test compounds and ratios thereof were determined in the following manner. BALB/c mice from Charles River Laboratories were used in the assay. Test compounds were individually formulated in 20% propylene glycol in pH 4 citrate buffer at a concentration of 0.2 mg/mL and 50 uL of the dosing solution was introduced into the trachea of a mouse by oral aspiration. At various time points (typically 0.167, 2, 6, 24 hr) post dosing, blood samples were removed via cardiac puncture and intact lungs were excised from the mice. Blood samples were centrifuged (Eppendorf centrifuge, 5804R) for 4 minutes at approximately 12,000 rpm at 4° C. to collect plasma. Lungs were padded dry, weighed, and homogenized at a dilution of 1:3 in sterile water. Plasma and lung levels of test compound were determined by LC-MS analysis against analytical standards constructed into a standard curve in the test matrix. A lung to plasma ratio was determined as the ratio of the lung AUC in μg hr/g to the plasma AUC in μg hr/mL, where AUC is conventionally defined as the area under the curve of test compound concentration vs. time.

[4] = system: IL-2 stimulated pSTAT5 in CD4+ T cells; experiment: Assay 4: Inhibition of IL-2 stimulated pSTAT5 in CD4+ T cells; assay type: cell-based; details: CD4+ T cells in human PBMCs, flow cytometry; read-out: pIC50, inhibition of IL-2 stimulated pSTAT5 (converted)
Protocol: The potency of the test compound for inhibition of interleukin-2 (IL-2)/anti-CD3 stimulated STATS phosphorylation was measured in CD4-positive (CD4+) T cells in human peripheral blood mononuclear cells (PBMCs) isolated from human whole blood (Stanford Blood Center) using flow cytometry. Because IL-2 signals through JAK, this assay provides a measure of JAK cellular potency.
CD4+T cells were identified using a […] (PE) conjugated anti-CD4 antibody (Clone RPA-T4, BD Biosciences), while an Alexa Fluor 647 conjugated anti-pSTAT5 antibody (pY694, Clone 47, BD Biosciences) was used to detect STATS phosphorylation.
(1) The protocol of Assay 3 paragraph (1) was followed with the exception that the cytokine stimulation with anti-CD3 was performed for 30 min instead of 24 h. […] After incubation, cells were washed twice in FACS buffer before being analyzed using a LSRII flow cytometer (BD Biosciences). To determine the inhibitory potency of the test compound in response to IL-^2/anti-CD3, the median fluorescent intensity (MFI) of pSTAT5 was measured in CD4+ T cells. IC50 values were determined from analysis of the inhibition curves of MFI vs compound concentration. Data are expressed as pIC50 (negative decadic logarithm IC50) values.

[5] = system: IL-27 induced CXCL10 secretion in EpiAirway tissue cultures; experiment: Assay 15: IL-27 induced CXCL10 in human 3D airway cultures; assay type: cell-based; details: 192 h, Day 8, average from 3 or 4 donors, read-out: % inhibition of IL-27 induced CXCL10 secretion (±STDV)
Protocol: (§1) EpiAirway tissue cultures were obtained from Mattek (AIR-100). Cultures were derived from asthmatic donors. In a cell culture insert, human derived tracheal/bronchial epithelial cells were grown and differentiated on a porous membrane support, allowing an air-liquid interface with warmed culture medium below the cells and a gaseous test atmosphere above. Tissues were cultured in maintenance media (Mattek, AIR-100-MM) in a 37° C., 5% CO2 humidified incubator. Four donors were tested. On Day 0, tissue cultures were treated with test compounds at 10 μM, 1 μM and/or 0.1 μM. Compounds were diluted in dimethyl sulfoxide (DMSO, Sigma) to a final concentration of 0.1%. DMSO at 0.1% was used as a vehicle control. Test compounds were incubated with cultures for 1 hour at 37° C., 5% CO2, followed by the addition of pre-warmed media containing IFNγ (R&D Systems) or IL-27 (R&D Systems) at a final concentration at 100 ng/ml. Tissue cultures were maintained for 8 days. Media was replaced every 2 days with fresh media containing compounds and IFNγ or IL-27. On Day 8, tissue cultures and supernatants were collected for analysis. Supernatant samples were assayed for CXCL10 (IP-10) and CXCL9 (MIG) using luminex analysis (EMD Millipore). Data is expressed as % Inhibition +/−standard deviation (±STDV). Percent inhibition was determined by compound inhibitory potency against IFNγ or IL-27 induced CXCL10 or CXCL9 secretion compared to vehicle treated cells. Data is the average from 3 or 4 donors. Compound 1 was able to inhibit IFNγ induced CXCL10 secretion by 99%±2.0 (at 10 μM), 71%±19 (at […]) and 17%±12 (at 0.1 μM) when compared to vehicle control. Compound 1 was able to inhibit IFNγ induced CXCL9 secretion by 100%±0.3 (at 10 μM), 99%±0.9 (at 1 μM) and 74%±17 (at 0.1 μM) when compared to vehicle. […] Compound 1 was able to inhibit IL-27 induced CXCL9 secretion by 100%±0 (at 10 μM), 95%±3.7 (at 1 μM) and 75%±3.5 (at 0.1 μM) when compared to vehicle control.

[6] = system: IL-27 induced CXCL9 secretion in EpiAirway tissue cultures; experiment: Assay 15: IL-27 induced CXCL9 in human 3D airway cultures; assay type: cell-based; details: 192 h, Day 8, average from 3 or 4 donors, read-out: % inhibition of IL-27 induced CXCL9 secretion (±STDV)
Protocol: as §1

CCc1cc(O)c(F)cc1-c1ccc2c(-c3nc4c([nH]3)CCN(C3CCN(C)CC3)C4)n[nH]c2c1 [Compound 1, 5-ethyl-2-fluoro-4-(3-(5-(1-methylpiperidin-4-yl)-4,5,6,7-tetrahydro-1H-imidazo[4,5-c]pyridin-2-yl)-1H-indazol-6-yl)phenol]
inhibition at 0.1 µM ([1]; at 0.1 μM): 17%
inhibition at 10 µM ([1]; at 10 μM): 99%
IC50 [2]: ~50.1 nM
Kp [3]: ~55
IC50 [4]: ~20 nM
inhibition at 0.1 µM ([5]; at 0.1 μM): 73%
inhibition at 1 µM ([5]; at 1 μM): 98%
inhibition at 10 µM ([5]; at 10 μM): 108%
inhibition at 0.1 µM ([6]; at 0.1 μM): 75%
inhibition at 1 µM ([6]; at 1 μM): 95%
inhibition at 10 µM ([6]; at 10 μM): 100%
